# Test results from patent US11471502B2, “Neuroprotective peptide” (UNIVERSITY COLLEGE CARDIFF C[…], priority 2017, dated 2022).
# “Also recorded” adds a separate entry of the source.
# Columns and labels:
# [1] = molecular target: phospho p44/p42 MAP kinase; experiment: Dose response curve of RB5 for ERK activation in striatal slices; assay type: cell-based, mouse; conditions: 200 μm striatal slices, 1 h pre-treatment; read-out: EC50 for enhancing pERK (phospho-ERK positive cells)
# Method: a) RB5 peptide selectively promoted activation of ERK2. Acute striatal slices either pre-treated with Scramble (SCR) or RB5 peptide (50 μM) and then stimulated 10 minutes with glutamate (GLU) (100 μM) or vehicle were analysed in Western blot (left panel) and probed with anti phospho ERK antibodies (p44^ERK1 and p42^ERK2) and anti ERK1/2 antibody. GAPDH was used as loading control. […] No changes were detected in the total ERK1 and ERK2 levels. GAPDH was used as loading control. […] Mice injected with a single dose of CPP-SCR or CPP-RB5 peptides (20 mg/kg, i.p.) were rapidly perfused 1 h later and brains were dissected and further analysed for IHC and immunofluorescence. Representative photomicrographs of pERK1/2, pMSK, pAch3, pELK1 and c-Fos expression in the striatum. […] Two-way ANOVA Bonferroni post hoc comparison: one black star, p<0.05, two black stars, p<0.01, one white star, p<0.001. p) Dose response curve of RB5 peptide for ERK activation. 200 μm thick striatal slices were freshly prepared from 2-month old mice and transferred into a perfusion chamber for 1 h at 32° C. Slices were pre-treated with different doses of RB5 or scrambled control. After 1 h, slices for each dose was fixed in PFA 4% for 15 min. […] Neuronal quantification was performed with ImageJ software by counting the number of phospho-ERK positive cells in each slice. […] The EC50 was calculated using GraphPad Prism software.
# ERK1/MAPK3 = experiment: Single in vivo administration in ERK1 KO versus ERK1 WT mice; set-up: species or system mouse
# Method: a) RB5 peptide selectively promoted activation of ERK2. Acute striatal slices either pre-treated with Scramble (SCR) or RB5 peptide (50 μM) and then stimulated 10 minutes with glutamate (GLU) (100 μM) or vehicle were analysed in Western blot (left panel) and probed with anti phospho ERK antibodies (p44^ERK1 and p42^ERK2) and anti ERK1/2 antibody. GAPDH was used as loading control. […] No changes were detected in the total ERK1 and ERK2 levels. GAPDH was used as loading control. […] Mice injected with a single dose of CPP-SCR or CPP-RB5 peptides (20 mg/kg, i.p.) were rapidly perfused 1 h later and brains were dissected and further analysed for IHC and immunofluorescence. Representative photomicrographs of pERK1/2, pMSK, pAch3, pELK1 and c-Fos expression in the striatum. […] Two-way ANOVA Bonferroni post hoc comparison: one black star, p<0.05, two black stars, p<0.01, one white star, p<0.001. p) Dose response curve of RB5 peptide for ERK activation. 200 μm thick striatal slices were freshly prepared from 2-month old mice and transferred into a perfusion chamber for 1 h at 32° C. Slices were pre-treated with different doses of RB5 or scrambled control. After 1 h, slices for each dose was fixed in PFA 4% for 15 min. 18 μm cryo-sections were processed for immunohistochemistry with anti-phospho p44/p42 MAP kinase. Neuronal quantification was performed with ImageJ software by counting the number of phospho-ERK positive cells in each slice. The level of activation is expressed on the Y-axis as arbitrary units (AU). Doses are reported in a logarithmic scale (Log 10) on the X-axis. The EC50 was calculated using GraphPad Prism software.
# ERK1 male KO and littermate controls, were generated as described previously and were used for ex vivo analysis.
# Mice pre-treated with a single dose of CPP-RB5 or CPP-SCR (20 mg/kg) were perfused 1 h later and brain slices were processed for nuclear and cytoplasmic markers.
# [2] = In vivo time course and dose response of ERK activation in dorsal striatum; set-up: species or system mouse; conditions: mouse, in vivo, ip; 20 mg/kg i.p.; read-out: estimated half-life (of RB5 activity on pERK in brain) (converted)
# Method: (§1) Mice injected with RB5 were perfused at different time points, whereas scramble-injected mice were perfused after 1 hour. Immunohistochemical analysis was carried out against phospho-p44/p42 MAP kinase (Thr202/Tyr204). […] One-way ANOVA F5,29=9.137, p<0.0001. Bonferroni's post-hoc test, SCR vs RB5 1 h: p<0.001, SCR vs RB5 6 h: p<0.001. […] Immunohistochemical analysis was carried out against phospho-p44/p42 MAP kinase (Thr202/Tyr204). […] One-way ANOVA: F5,29=7.097, p<0.001. Bonferroni's post-hoc test, SCR vs RB5 20 mg/kg: p<0.05, SCR vs RB5 10 mg/kg: p<0.01. Data are expressed as Mean±SEM. c) RB5 brain levels measured with mass spectrometry at different hours after a single i.p. administration of 20 mg/kg. High levels of RB5 were detected up to 6 hrs (one-way ANOVA, F4,18=17.469, P<0.0001, Bonferroni's post-hoc, SCR vs RB5 1 h P<0.01, SCR vs RB5 3 h P<0.0001, SCR vs RB5 6 h P<0.05). […] White star P<0.0001, P<0.001, P<0.01, P<0.05.
# (§2) 1 h after CPP-RB5/CPP-SCR (20 mg/kg, i.p.) mice were anaesthetized and perfused via intracardiac infusion of ice-cold 4% PFA. Brains were rapidly extracted, post-fixed overnight and transferred to 25% buffered sucrose for 24 h. Coronal sections were cut at 30 μm thickness on a freezing microtome and stored in a cryoprotective solution at −20° C. until they were processed for immunohistochemistry. Free-floating sections were incubated with primary antibodies against anti-phospho-p44/42 MAP kinase (Thr202/Tyr204), anti-phospho-Elk-1 (Ser383), anti-phospho-Kv4.2 (Thr607)-R, anti-phospho-MSK-1, anti-phospho-MEK-1, c-Fos and Tyrosine Hydroxylase overnight at 4° C. Sections were then incubated with biotinylated goat anti-rabbit IgG (1:200, Vector Labs) for 2 h. Detection of the bound antibodies was carried out using a standard peroxidase-based method (ABC-kit, Vectastain, Vector Labs), followed by a DAB and H2O2 solution. Quantification of positive neurons were counted from striatum in 2-3 sections per mouse, bilaterally. Sample areas were visualized under a 20× objective in a Leica DM IRB microscope by a blind investigator to condition and counts per region were averaged across the sections using the ImageJ software.
# [3] = system: phospho-p44/p42 MAP kinase (Thr202/Tyr204); experiment: as above; set-up: species or system mouse; conditions: dorsal striatum
# Method: as §1, §2
# MPTP treated mice = experiment: Subacute MPTP mouse model of Parkinson's Disease; assay type: in vivo; conditions: 4 days
# Method: Adult mice were treated with MPTP or vehicle (20 mg/kg i.p.) for 4 days. […] Two-way ANOVA Bonferroni post-hoc comparison *p<0.05**p<0.01.
# Two-way ANOVA Bonferroni post-hoc comparison *p<0.05**p<0.01
# We have assessed the neuroprotective effect of RB5 in the MPTP (1-methyl-4-phenyl-1,2,3,6-tetrahydropyridine) neurotoxin model of Parkinson's Disease (FIG. 6). Mice have been treated with MPTP or vehicle (20 mg/kg, i.p) for 4 days. RB5 or scramble peptide (20 mg/kg, i.p) was injected 1 h before MPTP/vehicle.
smiles,measurement,setting,value
CSCC[C@H](NC(=O)[C@H](CCC(=O)O)NC(=O)[C@@H](NC(=O)[C@H](CCC(=O)O)NC(=O)CNC(=O)[C@@H]1CCCN1C(=O)[C@@H](NC(=O)CNC(=O)[C@@H]1CCCN1C(=O)CNC(=O)[C@@H](NC(=O)CNC(=O)[C@H](CCC(=O)O)NC(=O)[C@@H](NC(=O)[C@H](CCCNC(=N)N)NC(=O)[C@H](CCCNC(=N)N)NC(=O)[C@@H]1CCCN1C(=O)[C@H](CCC(=O)O)NC(=O)CNC(=O)CNC(=O)CNC(=O)CNC(=O)CNC(=O)[C@H](CCC(N)=O)NC(=O)[C@@H]1CCCN1C(=O)[C@@H]1CCCN1C(=O)[C@H](CCCNC(=N)N)NC(=O)[C@H](CCCNC(=N)N)NC(=O)[C@H](CCCNC(=N)N)NC(=O)[C@H](CCC(N)=O)NC(=O)[C@H](CCCNC(=N)N)NC(=O)[C@H](CCCNC(=N)N)NC(=O)[C@H](CCCCN)NC(=O)[C@H](CCCCN)NC(=O)[C@H](CCCNC(=N)N)NC(=O)CNC(C)=O)[C@@H](C)O)C(C)C)C(C)C)C(C)C)C(=O)N[C@H](C(=O)N[C@@H](CCCCN)C(=O)NCC(=O)N[C@@H](CCC(N)=O)C(=O)N1CCC[C@H]1C(=O)N[C@@H](Cc1ccccc1)C(=O)N[C@@H](CC(=O)O)C(=O)N[C@@H](C(=O)O)C(C)C)C(C)C [RB5],EC50,[1],3.4 µM
same,"pERK, pAcH3 (and pS6)","ERK1/MAPK3; ERK1 KO mice, single administration",did not alter; also recorded: did not reach the statistical significance
same,pERK and pAcH3,"ERK1/MAPK3; ERK1 WT mice, single administration",significant activation
same,phosphorylation of S6,ERK1/MAPK3; ERK1 WT vs ERK1 KO mice,comparable in both genotypes
same,half-life,[2],9 h
same,time after injection at which phospho-ERK returned to basal levels,[3]; 20 mg/kg i.p.,12 h
same,time after injection up to which phospho-ERK levels / RB5 activity remained increased,[3]; 20 mg/kg i.p.,up to 6 h
same,pERK dose response,"[3]; different doses i.p., 1 hour after injection",both 20 and 10 mg/kg (i.p.) doses are able to elevate pERK; also recorded: dose-dependent manner
same,TH loss in Substantia Nigra,MPTP treated mice; 20 mg/kg i.p. 1 h before MPTP 20 mg/kg,significant reduction of TH loss
same,"apoptotic cells (TUNEL, nigral neurones)",MPTP treated mice; 20 mg/kg i.p. 1 h before MPTP,significant reduction of apoptotic cells
same,"neurodegeneration (TH, TUNEL, cleaved caspase 3)",MPTP treated mice; 20 mg/kg i.p. 1 h before MPTP,Neurodegeneration was prevented
same,pre-apoptotic state (Cleaved Caspase-3),MPTP treated mice; 20 mg/kg i.p. 1 h before MPTP,significant reduction of the pre-apoptotic state
